Experimental findings from patent publication US8609650B2, “Bridged bicyclic aryl and bridged bicyclic heteroaryl substituted triazoles useful as Axl inhibitors” (Rigel Pharmaceuticals, Inc., priority 2006, dated 2013) are described below.

The experiment has as its target T1, Axl (Homo sapiens, UniProt P30530).
T1 construct: endogenous in cells; host or cells: HeLa cells
T1 sequence (P30530 26-894): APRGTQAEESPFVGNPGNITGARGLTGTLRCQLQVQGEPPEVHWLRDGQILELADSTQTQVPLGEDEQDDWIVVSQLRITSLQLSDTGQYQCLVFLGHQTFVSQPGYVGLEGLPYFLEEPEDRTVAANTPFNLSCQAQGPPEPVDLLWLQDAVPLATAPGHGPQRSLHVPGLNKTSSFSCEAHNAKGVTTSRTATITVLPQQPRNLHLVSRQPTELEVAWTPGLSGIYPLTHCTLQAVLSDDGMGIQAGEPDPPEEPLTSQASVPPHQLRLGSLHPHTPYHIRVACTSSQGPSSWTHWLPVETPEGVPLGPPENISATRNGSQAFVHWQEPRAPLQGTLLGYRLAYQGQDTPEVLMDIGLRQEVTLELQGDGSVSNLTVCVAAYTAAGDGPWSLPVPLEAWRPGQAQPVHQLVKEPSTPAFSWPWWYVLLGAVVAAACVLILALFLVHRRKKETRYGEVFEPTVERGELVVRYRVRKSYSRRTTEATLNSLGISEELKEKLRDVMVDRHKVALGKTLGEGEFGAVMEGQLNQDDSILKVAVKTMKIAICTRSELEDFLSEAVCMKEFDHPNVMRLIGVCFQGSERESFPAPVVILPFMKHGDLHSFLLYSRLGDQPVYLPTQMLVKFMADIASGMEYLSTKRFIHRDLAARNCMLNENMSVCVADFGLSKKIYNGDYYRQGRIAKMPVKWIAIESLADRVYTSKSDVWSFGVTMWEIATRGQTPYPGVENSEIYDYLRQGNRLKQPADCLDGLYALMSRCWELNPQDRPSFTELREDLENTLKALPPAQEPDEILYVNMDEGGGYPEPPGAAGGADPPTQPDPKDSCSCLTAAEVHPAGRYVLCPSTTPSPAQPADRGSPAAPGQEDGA
Description: Phospho-Akt In-Cell Western Assay (ability to inhibit Axl activity). The settings on record: Hela cells, stimulated by Axl-antibody cross-linking, phospho-Akt chemiluminescence normalized to relative cell number. It counts as cell-based. Summed up:
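HeLa cells starved 24 h in 0.5% FCS with Axl/Fc 500 ng/mL, pre-treated 1 h at 37° C with compound, then stimulated 5 min by anti-Axl antibody cross-linking. Fixed cells probed for phospho-Akt with HRP secondary; chemiluminescence read.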

pIC50: −log10 of the molar value.

As for `Nc1nc(Nc2ccc(N3CCC(N4CCCC4)CC3)c(F)c2)nn1-c1nnc(-c2ccccc2)c2c1C1CCC2C1` (stereo not drawn) [Compound 40, 1-(5,8-methano-1-phenyl-5,6,7,8-tetrahydrophthalazine-4-yl)-N^3-(3-fluoro-4-(4-(pyrrolidin-1-yl)piperidin-1-yl)phenyl)-1H-1,2,4-triazole-3,5-diamine], the negative logarithm of the IC50 (pIC50) (usually −log10 of the IC50, conventionally taken in molar units) is greater than 6.00.
Under `CN1CCN(c2ccc(Nc3nc(N)n(-c4nnc(-c5ccccc5)c5c4C4CCC5C4)n3)cc2)CC1` (stereo not drawn) [Compound 42, 1-(5,8-methano-1-phenyl-5,6,7,8-tetrahydrophthalazine-4-yl)-N^3-(4-(4-methylpiperazin-1-yl)phenyl)-1H-1,2,4-triazole-3,5-diamine] stands greater than 6.00.
Next, `COC(=O)[C@@H]1CCCN1C1CCN(c2ccc(Nc3nc(N)n(-c4cc(-c5ccccc5)c5c(n4)C4CCN5CC4)n3)cc2F)CC1` [Compound 60, 1-(1,4-ethano-8-phenyl-1,2,3,4-tetrahydro-1,5-naphthyridin-6-yl)-N^3-(3-fluoro-4-(4-((2S)-2-methyloxycarbonylpyrrolidin-1-yl)piperidin-1-yl)phenyl)-1H-1,2,4-triazole-3,5-diamine]: greater than 6.00.
As to `Nc1nc(Nc2ccc(N3CCC(N4CCCC4)CC3)c(F)c2)nn1-c1cc(-c2cccs2)c2c(n1)C1CCC2C1` (stereo not drawn) [Compound 53, 1-(5,8-methano-4-thiophen-2-yl-5,6,7,8-tetrahydroquinoline-2-yl)-N^3-(3-fluoro-4-(4-(pyrrolidin-1-yl)piperidin-1-yl)phenyl)-1H-1,2,4-triazole-3,5-diamine], the pIC50 is greater than 6.00.
Next, `COC(=O)[C@@H]1CN(c2ccc(Nc3nc(N)n(-c4cc(-c5ccccc5)c5c(n4)C4CCN5CC4)n3)cc2F)CCN1CC1CC1` [Compound 65, 1-(1,4-ethano-8-phenyl-1,2,3,4-tetrahydro-1,5-naphthyridin-6-yl)-N^3-(3-fluoro-4-((3S)-3-methyloxycarbonyl-4-cyclopropylmethylpiperazin-1-yl)phenyl)-1H-1,2,4-triazole-3,5-diamine]: greater than 6.00.
`Nc1nc(Nc2ccc(N3CCC(N4CCC(C(=O)O)CC4)CC3)c(F)c2)nn1-c1cc(-c2ccccc2)c2c(n1)C1CCN2CC1` [Compound 59, 1-(1,4-ethano-8-phenyl-1,2,3,4-tetrahydro-1,5-naphthyridin-6-yl)-N^3-(3-fluoro-4-(4-(4-carboxypiperidin-1-yl)piperidin-1-yl)phenyl)-1H-1,2,4-triazole-3,5-diamine] showed a pIC50 greater than 6.00.
In the case of `Nc1nc(Nc2ccc(OCCN3CCCC3)cc2)nn1-c1ncnc2c1C1CCC2C1` (stereo not drawn) [Compound 19, 1-(5,8-methano-5,6,7,8-tetrahydroquinazolin-4-yl)-N^3-(4-(2-(pyrrolidin-1-yl)ethoxy)phenyl)-1H-1,2,4-triazole-3,5-diamine], the negative logarithm of the IC50 (pIC50) is greater than 6.00.
Under `Cc1csc2c(-n3nc(Nc4ccc5c(c4)CC4CCC(C5)C4N4CCCC4)nc3N)nc(Cl)nc12` (stereo not drawn) [Compound 15, 1-(2-chloro-7-methylthieno[3,2-d]pyrimidin-4-yl)-N^3-(7-pyrrolidin-1-yl-6,8-ethano-6,7,8,9-tetrahydro-5H-benzo[7]annulene-3-yl)-1H-1,2,4-triazole-3,5-diamine] stands greater than 6.00; under `CCSc1nc2c(c(-n3nc(Nc4ccc(OCCN5CCCC5)cc4)nc3N)n1)C1CCC2C1` (stereo not drawn) [Compound 2, 1-(2-ethylthio-5,8-methano-5,6,7,8-tetrahydroquinazolin-4-yl)-N^3-(4-(2-(pyrrolidin-1-yl)ethoxy)phenyl)-1H-1,2,4-triazole-3,5-diamine], greater than 6.00; under `Nc1nc(Nc2ccc(N3CCN(C4CC5CCC4C5)CC3)cc2)nn1-c1ncnc2c1C1CCC2C1` (stereo not drawn) [Compound 18, 1-(5,8-methano-5,6,7,8-tetrahydroquinazolin-4-yl)-N^3-(4-(4-(bicyclo[2.2.1]heptan-2-yl)piperazin-1-yl)phenyl)-1H-1,2,4-triazole-3,5-diamine], greater than 6.00.
`CN1CCN(c2ccc(Nc3nc(N)n(-c4cc(-c5ccccc5)c5c(n4)C4CCC5C4)n3)cc2)CC1` (stereo not drawn) [Compound 45, 1-(5,8-methano-4-phenyl-5,6,7,8-tetrahydroquinoline-2-yl)-N^3-(4-(4-methylpiperazin-1-yl)phenyl)-1H-1,2,4-triazole-3,5-diamine] gave a negative-log IC50 (pIC50) greater than 6.00.
Next, `Cc1csc2c(-n3nc(Nc4cnc5c(c4)CN4CCC5CC4)nc3N)ncnc12` [Compound 27, 1-(7-methylthieno[3,2-d]pyrimidin-4-yl)-N^3-(6,9-ethano-6,7,8,9-tetrahydro-5H-pyrido[3,2-c]azepin-3-yl)-1H-1,2,4-triazole-3,5-diamine]: greater than 6.00.
Under `Nc1nc(Nc2ccc3c(c2)CCNC3)nn1-c1ncc2c(n1)C1CCC2C1` (stereo not drawn) [Compound 13, 1-(5,8-methano-5,6,7,8-tetrahydroquinazolin-2-yl)-N^3-(1,2,3,4-tetrahydroisoquinolin-6-yl)-1H-1,2,4-triazole-3,5-diamine] stands less than 4.70.
Next, `Nc1nc(Nc2ccc3c(c2)CCC(N2CCC(N4CCCC4)CC2)CC3)nn1-c1cc(-c2ccccc2)c2c(n1)C1CCN2CC1` (stereo not drawn) [Compound 71, 1-(1,4-ethano-8-phenyl-1,2,3,4-tetrahydro-1,5-naphthyridin-6-yl)-N^3-(7-(4-pyrrolidin-1-ylpiperidin-1-yl)-6,7,8,9-tetrahydro-5H-benzo[7]annulene-3-yl)-1H-1,2,4-triazole-3,5-diamine]: greater than 6.00.
Consider `CN1CCN(c2ccc(Nc3nc(N)n(-c4cc(-c5ccccc5)c5c(n4)C4CCN5CC4)n3)cc2)CC1` [Compound 35, 1-(1,4-ethano-8-phenyl-1,2,3,4-tetrahydro-1,5-naphthyridin-6-yl)-N^3-(4-(4-methylpiperazin-1-yl)phenyl)-1H-1,2,4-triazole-3,5-diamine], for which the negative-log IC50 (pIC50) was greater than 6.00.
Turning to `Cc1cc(Nc2nc(N)n(-c3cc(-c4cccs4)c4c(n3)C3CCC4C3)n2)cnc1N1CCN(CC2CC2)CC1` (stereo not drawn) [Compound 52, 1-(5,8-methano-4-thiophen-2-yl-5,6,7,8-tetrahydroquinoline-2-yl)-N^3-(3-methyl-2-(4-cyclopropylmethylpiperazin-1-yl)pyridine-5-yl)-1H-1,2,4-triazole-3,5-diamine], the negative-log IC50 (pIC50) was greater than 6.00.
`CN1CCC(c2ccc(Nc3nc(N)n(-c4ncc5c(n4)C4CCC5C4)n3)cc2)CC1` (stereo not drawn) [Compound 12, N^3-(4-(1-methylpiperidin-4-yl)phenyl)-1-(5,8-methano-5,6,7,8-tetrahydroquinazolin-2-yl)-1H-1,2,4-triazole-3,5-diamine]: the negative logarithm of the IC50 (pIC50) is less than 4.70.
`CN1CCN(c2ccc(Nc3nc(N)n(-c4ncc5c(n4)C4CCC5C4)n3)cc2)CC1` (stereo not drawn) [Compound 4, 1-(5,8-methano-5,6,7,8-tetrahydroquinazolin-2-yl)-N^3-(4-(4-methylpiperazin-1-yl)phenyl)-1H-1,2,4-triazole-3,5-diamine]: the pIC50 was greater than 6.00.
